Results: ChEMBL document CHEMBL2069172, “Transition state analogue inhibitors of human methylthioadenosine phosphorylase and bacterial methylthioadenosine/S-adenosylhomocysteine nucleosidase incorporating acyclic ribooxacarbenium ion mimics” (Bioorg Med Chem, 2012)
pKi: −log10 of the molar value.

How the values were obtained:
[1] = target: T1, S-methyl-5'-thioadenosine phosphorylase (Homo sapiens, UniProt Q13126); assay: Inhibition of human MTAP assessed as reduction in methylthioadenosine phosphorolysis/hydrolysis
T1 sequence (Q13126 whole entry): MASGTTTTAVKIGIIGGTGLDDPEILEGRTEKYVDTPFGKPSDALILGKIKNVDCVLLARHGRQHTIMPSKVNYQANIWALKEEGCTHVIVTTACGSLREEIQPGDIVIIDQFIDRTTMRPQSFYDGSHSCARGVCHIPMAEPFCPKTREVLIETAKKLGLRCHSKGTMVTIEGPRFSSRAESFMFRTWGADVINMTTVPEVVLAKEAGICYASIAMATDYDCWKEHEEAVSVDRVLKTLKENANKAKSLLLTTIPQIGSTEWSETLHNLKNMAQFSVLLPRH

[2] = Inhibition of Escherichia coli MTAN assessed as reduction in methylthioadenosine phosphorolysis/hydrolysis
[3] = Inhibition of Neisseria meningitidis MTAN assessed as reduction in methylthioadenosine phosphorolysis/hydrolysi
Escherichia coli = assay: Ratio of Km to Ki for Escherichia coli MTAN assessed as reduction in methylthioadenosine phosphorolysis/hydrolysis

CSC[C@H](O)[C@@H](CO)CN(C)Cc1c[nH]c2c(N)ncnc12 (racemic)
pKi [1]: 6.98 | pKi [2]: 6.40 | pKi [3]: 6.88

CSCC(CO)NCc1c[nH]c2c(N)ncnc12 (racemic)
pKi [1]: 7.92 | pKi [3]: 9.10

CSC[C@H](CO)N[C@H](CO)c1c[nH]c2c(N)ncnc12
pKi [2]: 5.76 | pKi [3]: 7.33

CSC[C@@H](CNCc1c[nH]c2c(N)ncnc12)[C@@H](O)CO (racemic)
pKi [1]: 7.47 | pKi [2]: 8.05 | pKi [3]: 8.30

CSC[C@H](O)[C@@H](O)CN(C)Cc1c[nH]c2c(N)ncnc12 (racemic)
pKi [1]: 6.43 | pKi [2]: 6.69 | pKi [3]: 7.07

CSC[C@@H](O)[C@@H](CO)NCc1c[nH]c2c(N)ncnc12
pKi [1]: 8.28

CSC[C@H]1N[C@@H](c2c[nH]c3c(N)ncnc23)[C@H](O)[C@@H]1O
pKi [2]: 10.10 | pKi [3]: 9.44

CSCC(CO)(CO)NCc1c[nH]c2c(N)ncnc12
pKi [2]: 8.24 | pKi [3]: 8.40

CSC[C@@H](CO)NCc1c[nH]c2c(N)ncnc12
pKi [1]: 8.36 | Ratio (Escherichia coli): 1200

CSC[C@@H](O)[C@H](CO)NCc1c[nH]c2c(N)ncnc12
pKi [1]: 7.47

CSC[C@@H](O)CNCc1c[nH]c2c(N)ncnc12
pKi [1]: 6.22 | pKi [2]: 7.40 | pKi [3]: 7.44

CSC[C@@H](CN(C)Cc1c[nH]c2c(N)ncnc12)[C@@H](O)CO (racemic)
pKi [1]: 7.92 | pKi [2]: 5.64 | pKi [3]: 7.21 | Ratio (Escherichia coli): 19

CSCC(CO)CNCc1c[nH]c2c(N)ncnc12 (racemic)
pKi [1]: 8.00 | pKi [2]: 9.44 | pKi [3]: 8.92

CSC[C@H](O)[C@@H](CO)NCc1c[nH]c2c(N)ncnc12
pKi [1]: 7.06

CSC[C@H](CO)NCc1c[nH]c2c(N)ncnc12
pKi [1]: 7.47

CSC[C@H]1CN(Cc2c[nH]c3c(N)ncnc23)C[C@@H]1O
pKi [3]: 9.85
